Laboratory results: PMC7198382 (Journal of nuclear medicine : official publication, Society …, 2019)

Experiments:
[1] = tested on: CA20948 tumor xenograft-bearing mice; experiment: SPECT/CT tumor uptake of 177Lu-DOTATATE; type: in vivo; details: dynamic SPECT imaging after intravenous administration, one mouse
CA20948 tumor xenografts = experiment: In vivo 177Lu tumor dosimetry from SPECT VOI analysis; parameters: species or system mice; details: single exponential fit of tumour time-activity data; mean ± SD

In the case of `C[C@@H](O)[C@H](NC(=O)[C@@H]1CSSC[C@H](NC(=O)[C@@H](Cc2ccccc2)NC(=O)CN2CCN(CC(=O)O)CCN(CC(=O)O)CCN(CC(=O)O)CC2)C(=O)N[C@@H](Cc2ccc(O)cc2)C(=O)N[C@H](Cc2c[nH]c3ccccc23)C(=O)N[C@@H](CCCCN)C(=O)N[C@@H]([C@@H](C)O)C(=O)N1)C(=O)O` [^177Lu-DOTATATE, (DOTA^0-Tyr^3)-octreotate, metal not drawn], the “time at which maximum tumor uptake was reached” value [1] is reported as 60 min and the “mean effective half-life of clearance from the tumor xenografts” value (CA20948 tumor xenografts) is reported as 46.3 ± 8.6 h.
